In this experiment the test system is BDF1 mice, P388 leukemia ip, median survival T/C. Briefly: NCI In Vivo Anticancer Drug Screen. Data for tumor model P388 Leukemia (intraperitoneal) in B6D2F1 (BDF1) mice. As to conditions: endpoint: median survival time, higher = longer survival. The essentials:
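Antitumour effect was judged in vivo: survival in drug-treated mice, normalised to that of vehicle-dosed controls, gives the reported T/C.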

The mark [1] stands for this setting: dose: 50.0 mg/kg/injection, schedule: Q01DX010 (ip), vehicle: saline.
The mark [2] stands for this setting: dose: 25.0 mg/kg/injection, schedule: Q01DX009 (ip), vehicle: saline.
Where [3] appears, read: dose: 50.0 mg/kg/injection, schedule: Q01DX009 (ip), vehicle: saline.
Where [4] appears, read: dose: 100.0 mg/kg/injection, schedule: Q01DX009 (ip), vehicle: saline.
Where [5] appears, read: dose: 100.0 mg/kg/injection, schedule: Q04DX003 (ip), vehicle: saline.
The mark [6] stands for this setting: dose: 200.0 mg/kg/injection, schedule: Q01DX009 (ip), vehicle: saline.
The mark [7] stands for this setting: dose: 200.0 mg/kg/injection, schedule: Q04DX003 (ip), vehicle: saline.

“And” between values parts separate entries of the source, which are not always exact repeats. Identical values can stand only once. Inconclusive results and toxic doses are left out. Non-standard residues stand in square brackets, D forms with d. Residues, ends and D or L forms follow the SMILES beside them. *: point of attachment. NMeY = CN[CH](Cc1ccc(O)cc1)C(=O)O; Bn = c1ccc(C*)cc1

Among the data in PubChem BioAssay AID328 (DTP/NCI, 2004) are T/C values, retold here.

As to `O=C1C(CO)=C[C@@H](O)[C@H]2O[C@@H]12`, the T/C is 95 % of control (dose: 0.75 mg/kg/injection, schedule: Q01DX010 (ip), vehicle: saline); 110 % of control (dose: 1.5 mg/kg/injection, schedule: Q01DX010 (ip), vehicle: saline); 95 % of control and 120 % of control (dose: 3.0 mg/kg/injection, schedule: Q01DX010 (ip), vehicle: saline); 95 % of control (dose: 6.0 mg/kg/injection, schedule: Q01DX010 (ip), vehicle: saline); 155 % of control (dose: 6.2 mg/kg/injection, schedule: Q01DX001 (ip), vehicle: saline); 100 % of control (dose: 12.0 mg/kg/injection, schedule: Q01DX010 (ip), vehicle: saline). Also, the T/C is 160 % of control (dose: 12.5 mg/kg/injection, schedule: Q01DX001 (ip), vehicle: saline); 114 % of control and 115 % of control (dose: 24.0 mg/kg/injection, schedule: Q01DX010 (ip), vehicle: saline); 150 % of control (dose: 25.0 mg/kg/injection, schedule: Q01DX001 (ip), vehicle: saline); 110 % of control under setting [1]; 160 % of control and 161 % of control (dose: 96.0 mg/kg/injection, schedule: Q01DX010 (ip), vehicle: saline); 160 % of control (dose: 192.0 mg/kg/injection, schedule: Q01DX010 (ip), vehicle: saline). Moreover, the T/C (dose: 384.0 mg/kg/injection, schedule: Q01DX010 (ip), vehicle: saline) was 175 % of control.
Take `O=C1c2c(O)ccc([N+](=O)[O-])c2C(=O)c2c([N+](=O)[O-])ccc(O)c21`: the T/C (dose: 100.0 mg/kg/injection, schedule: Q04DX003 (ip), vehicle: Klucel (hydroxypropylcellulose) (HPC)) was 118 % of control; the T/C (dose: 200.0 mg/kg/injection, schedule: Q04DX003 (ip), vehicle: Klucel (hydroxypropylcellulose) (HPC)) is 122 % of control; the T/C (dose: 400.0 mg/kg/injection, schedule: Q04DX003 (ip), vehicle: Klucel (hydroxypropylcellulose) (HPC)) was 113 % of control.
In the case of `O=c1cc(-c2cccs2)ss1`, the T/C is 106 % of control (dose: 25.0 mg/kg/injection, schedule: Q01DX009 (ip), vehicle: saline with Tween-80); 97 % of control (dose: 50.0 mg/kg/injection, schedule: Q01DX009 (ip), vehicle: saline with Tween-80); 86 % of control and 106 % of control (dose: 100.0 mg/kg/injection, schedule: Q01DX009 (ip), vehicle: saline with Tween-80); 106 % of control (dose: 100.0 mg/kg/injection, schedule: Q04DX003 (ip), vehicle: saline with Tween-80); 116 % of control (dose: 200.0 mg/kg/injection, schedule: Q01DX009 (ip), vehicle: saline with Tween-80); 92 % of control (dose: 200.0 mg/kg/injection, schedule: Q04DX003 (ip), vehicle: saline with Tween-80).
With `O=NN(CCCl)C(=O)NC1CCCCC1`, the T/C is 116 % of control (dose: 2.4 mg/kg/injection, schedule: Q01DX009 (ip), vehicle: Klucel (hydroxypropylcellulose) (HPC)); 164 % of control (dose: 3.6 mg/kg/injection, schedule: Q01DX009 (ip), vehicle: Klucel (hydroxypropylcellulose) (HPC)); 113 % of control (dose: 4.0 mg/kg/injection, schedule: Q01DX009 (ip), vehicle: saline with Tween-80); 229 % of control (dose: 8.0 mg/kg/injection, schedule: Q01DX009 (ip), vehicle: saline with Tween-80); 153 % of control (dose: 12.5 mg/kg/injection, schedule: Q01DX009 (ip), vehicle: Klucel (hydroxypropylcellulose) (HPC)); 178 % of control (dose: 12.5 mg/kg/injection, schedule: Q01DX009 (ip), vehicle: saline). Also, the T/C (dose: 16.0 mg/kg/injection, schedule: Q01DX009 (ip), vehicle: Klucel (hydroxypropylcellulose) (HPC)) is 249 % of control; the T/C (dose: 16.0 mg/kg/injection, schedule: Q01DX009 (ip), vehicle: saline with Tween-80) was 283 % of control; the T/C (dose: 25.0 mg/kg/injection, schedule: Q01DX001 (ip), vehicle: Klucel (hydroxypropylcellulose) (HPC)) was 220 % of control; the T/C under setting [2] was 228 % of control; the T/C (dose: 30.0 mg/kg/injection, schedule: Q01DX001 (ip), vehicle: saline) is 103 % of control; the T/C (dose: 32.0 mg/kg/injection, schedule: Q01DX009 (ip), vehicle: saline with Tween-80) was 179 % of control. For the same compound, the T/C runs as follows: (dose: 35.0 mg/kg/injection, schedule: Q01DX009 (ip), vehicle: Klucel (hydroxypropylcellulose) (HPC)) 103 % of control; (dose: 40.0 mg/kg/injection, schedule: Q01DX001 (ip), vehicle: saline) 548 % of control and 183 % of control; (dose: 50.0 mg/kg/injection, schedule: Q01DX001 (ip), vehicle: Klucel (hydroxypropylcellulose) (HPC)) 113 % of control; (dose: 50.0 mg/kg/injection, schedule: Q01DX001 (ip), vehicle: saline) 174 % of control; (dose: 60.0 mg/kg/injection, schedule: Q01DX001 (oral), vehicle: carboxymethylcellulose (CMC)) 526 % of control and 166 % of control; (dose: 64.0 mg/kg/injection, schedule: Q01DX009 (ip), vehicle: saline with Tween-80) 88 % of control. Also, the T/C was 256 % of control (dose: 70.0 mg/kg/injection, schedule: Q01DX001 (ip), vehicle: saline); 210 % of control and 219 % of control (dose: 90.0 mg/kg/injection, schedule: Q01DX001 (oral), vehicle: carboxymethylcellulose (CMC)); 219 % of control (dose: 100.0 mg/kg/injection, schedule: Q01DX001 (ip), vehicle: carboxymethylcellulose (CMC)); 173 % of control (dose: 135.0 mg/kg/injection, schedule: Q01DX001 (oral), vehicle: carboxymethylcellulose (CMC)); 526 % of control (dose: 150.0 mg/kg/injection, schedule: Q01DX001 (ip), vehicle: carboxymethylcellulose (CMC)); 236 % of control (dose: 200.0 mg/kg/injection, schedule: Q01DX001 (oral), vehicle: carboxymethylcellulose (CMC)).
As to `C1CC2CCCC3CC(B4OCCO4)CC(C1)C23` (stereo not drawn) (tested in a mixture with another compound), the T/C runs as follows: (dose: 100.0 mg/kg/injection, schedule: Q04DX003 (ip), vehicle: other) 120 % of control; (dose: 200.0 mg/kg/injection, schedule: Q04DX003 (ip), vehicle: other) 100 % of control; (dose: 400.0 mg/kg/injection, schedule: Q04DX003 (ip), vehicle: other) 100 % of control.
With `c1ccc2cc(-c3cc4ccccc4s3)ccc2c1`, the T/C under setting [1] was 95 % of control; the T/C (dose: 100.0 mg/kg/injection, schedule: Q01DX009 (ip), vehicle: Klucel (hydroxypropylcellulose) (HPC)) is 120 % of control; the T/C (dose: 100.0 mg/kg/injection, schedule: Q01DX010 (ip), vehicle: saline) was 100 % of control; the T/C (dose: 200.0 mg/kg/injection, schedule: Q01DX009 (ip), vehicle: Klucel (hydroxypropylcellulose) (HPC)) was 120 % of control; the T/C (dose: 200.0 mg/kg/injection, schedule: Q01DX010 (ip), vehicle: saline) was 100 % of control; the T/C (dose: 400.0 mg/kg/injection, schedule: Q01DX009 (ip), vehicle: Klucel (hydroxypropylcellulose) (HPC)) was 115 % of control. The T/C (dose: 400.0 mg/kg/injection, schedule: Q01DX010 (ip), vehicle: saline) was 100 % of control.
For the compound `CNC(Cc1ccc(OCc2ccccc2)cc1)C(=O)NC(CC(C)C)C(=O)OC` (stereo not drawn) (H-[NMeY](Bn)-Leu-OMe; configuration not given here), the T/C under setting [2] was 106 % of control; the T/C under setting [3] is 99 % of control; the T/C (dose: 50.0 mg/kg/injection, schedule: Q04DX003 (ip), vehicle: saline) was 108 % of control; the T/C under setting [4] was 92 % of control; the T/C under setting [5] is 111 % of control; the T/C under setting [6] was 106 % of control. Under setting [7], the T/C is 106 % of control.
`O=C(O)COCC(F)(F)C(F)(F)C(F)(F)COCC(=O)O`: the T/C reads like this: under setting [3], 90 % of control; under setting [4], 110 % of control; under setting [5], 100 % of control; under setting [6], 110 % of control; under setting [7], 122 % of control.
